Molecular target: T1, recombinant human GR (Homo sapiens, UniProt P04150)
T1 construct: purchased Panvera/Invitrogen P2812 (kit P2893)
T1 sequence (P04150 1-777): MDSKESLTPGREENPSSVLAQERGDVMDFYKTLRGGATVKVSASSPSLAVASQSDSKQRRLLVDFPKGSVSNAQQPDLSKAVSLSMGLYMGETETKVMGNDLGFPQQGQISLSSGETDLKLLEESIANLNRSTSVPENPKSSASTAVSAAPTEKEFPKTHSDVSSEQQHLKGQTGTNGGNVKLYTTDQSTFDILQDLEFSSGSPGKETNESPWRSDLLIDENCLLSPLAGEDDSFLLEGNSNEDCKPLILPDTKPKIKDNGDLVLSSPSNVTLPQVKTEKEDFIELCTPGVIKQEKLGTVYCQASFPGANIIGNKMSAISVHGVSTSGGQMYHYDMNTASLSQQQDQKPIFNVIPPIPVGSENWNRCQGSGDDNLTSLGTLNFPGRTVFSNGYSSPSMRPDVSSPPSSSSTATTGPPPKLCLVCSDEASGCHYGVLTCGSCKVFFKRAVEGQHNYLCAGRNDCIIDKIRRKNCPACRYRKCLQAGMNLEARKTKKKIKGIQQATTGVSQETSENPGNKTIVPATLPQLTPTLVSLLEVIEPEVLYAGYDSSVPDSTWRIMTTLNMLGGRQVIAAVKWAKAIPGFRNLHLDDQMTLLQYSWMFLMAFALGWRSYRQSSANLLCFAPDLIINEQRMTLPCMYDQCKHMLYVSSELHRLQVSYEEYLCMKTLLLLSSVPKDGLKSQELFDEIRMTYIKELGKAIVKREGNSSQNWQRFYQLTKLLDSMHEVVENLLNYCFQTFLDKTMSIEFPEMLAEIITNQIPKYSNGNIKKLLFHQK
Assay: Human Glucocorticoid Receptor (GR) Assay, fluorescence polarization
Format: binding
Details: GS Red tracer, incubated 2 h at r.t., XLfit model 205, read-out: GRhuFL_FP_v2 Mean IC50
Summary of the method: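 Fluorescence polarization kit assay: recombinant GR and GS Red fluorescent ligand with Stabilizing Peptide and DTT in potassium phosphate/sodium molybdate/EDTA screening buffer. Plates incubated 2 h in the dark at r.t.; DMSO served as 0% and dexamethasone as 100% control.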

Point of comparison: Cc1cc(F)ccc1[C@@H](Oc1ccc2c(cnn2-c2ccc(F)cc2)c1)[C@H](C)NC(=O)C(C)(C)CO [Example 256, N-[(1R,2S)-1-(4-fluoro-2-methyl-phenyl)-1-[1-(4-fluorophenyl)indazol-5-yl]oxy-propan-2-yl]-3-hydroxy-2,2-dimethyl-propanamide], IC50 5.3 nM. Against it:
- COc1ccc(F)cc1[C@@H](Oc1ccc2c(cnn2-c2ccc(F)cc2)c1)[C@H](C)NC(=O)C(C)(C)F [Example 250, 2-fluoro-N-[(1R,2S)-1-(5-fluoro-2-methoxy-phenyl)-1-[1-(4-fluorophenyl)indazol-5-yl]oxy-propan-2-yl]-2-methyl-propanamide] — within 1.5-fold, 6.9 nM
- C[C@H](NC(=O)C(C)(F)F)[C@H](Oc1ccc2c(cnn2-c2ccc(F)cc2)c1)c1ccc(F)c(F)c1 [Example 228, N-[(1R,2S)-1-(3,4-difluorophenyl)-1-[1-(4-fluorophenyl)indazol-5-yl]oxy-propan-2-yl]-2,2-difluoro-propanamide] — 1.5-fold higher, 8 nM
- Cc1ccc(F)cc1[C@@H](Oc1ccc2c(cnn2-c2ccc(F)cc2)c1)[C@H](C)NC(=O)C(C)(C)C [Example 180, N-[(1R,2S)-1-(5-fluoro-2-methyl-phenyl)-1-[1-(4-fluorophenyl)indazol-5-yl]oxy-propan-2-yl]-2,2-dimethyl-propanamide] — within 1.5-fold, 6.8 nM
- COc1cccc([C@@H](Oc2ccc3c(cnn3-c3ccc(F)cc3)c2)[C@H](C)NC(=O)c2cc(C)[nH]n2)c1 [Example 282, N-[(1R,2S)-1-[1-(4-fluorophenyl)indazol-5-yl]oxy-1-(3-methoxyphenyl)propan-2-yl]-5-methyl-1H-pyrazole-3-carboxamide] — 2.2-fold lower, 2.4 nM
- C[C@H](NC(=O)[C@@H]1CCCN1)[C@H](Oc1ccc2c(cnn2-c2ccc(F)cc2)c1)c1ccc2c(c1)OCCO2 [Example 125, (S)-N-((1R,2S)-1-(2,3-dihydrobenzo[b][1,4]dioxin-6-yl)-1-(1-(4-fluorophenyl)-1H-indazol-5-yloxy)propan-2-yl)pyrrolidine-2-carboxamide] — within 1.5-fold, 6.4 nM
- COCC(=O)N[C@@H](CO)C(Oc1ccc2c(cnn2-c2ccc(F)cc2)c1)c1cccc(F)c1 (mixture of isomers) [Example 113, N-[(1S)-2-(3-Fluorophenyl)-2-{[1-(4-fluorophenyl)-1H-indazol-5-yl]oxy}-1-(hydroxymethyl)ethyl]-2-methoxyacetamide] — 4.5-fold higher, 24 nM
- C[C@H](NC(=O)C1(C)CC1)[C@H](Oc1ccc2c(cnn2-c2ccc(F)cc2)c1)c1cccc(F)c1 [Example 214, N-[(1R,2S)-1-(3-fluorophenyl)-1-[1-(4-fluorophenyl)indazol-5-yl]oxy-propan-2-yl]-1-methyl-cyclopropane-1-carboxamide] — within 1.5-fold, 4.5 nM
- Cc1ccc([C@@H](Oc2ccc3c(cnn3-c3ccc(F)cc3)c2)[C@H](C)NC(=O)C(C)(C)CO)cc1F [Example 252, N-[(1R,2S)-1-(3-fluoro-4-methyl-phenyl)-1-[1-(4-fluorophenyl)indazol-5-yl]oxy-propan-2-yl]-3-hydroxy-2,2-dimethyl-propanamide] — within 1.5-fold, 4.7 nM
- COc1c(C)cc([C@@H](Oc2ccc3c(cnn3-c3ccc(F)cc3)c2)[C@H](C)NC(=O)C(F)(F)F)cc1C [Example 159, 2,2,2-trifluoro-N-[(1R,2S)-1-[1-(4-fluorophenyl)indazol-5-yl]oxy-1-(4-methoxy-3,5-dimethyl-phenyl)propan-2-yl]acetamide] — within 1.5-fold, 4.2 nM
- COc1ccc([C@@H](Oc2ccc3c(cnn3-c3ccc(F)cc3)c2)[C@H](C)NC(=O)C(F)(F)F)cc1F [Example 264, 2,2,2-trifluoro-N-[(1R,2S)-1-(3-fluoro-4-methoxy-phenyl)-1-[1-(4-fluorophenyl)indazol-5-yl]oxy-propan-2-yl]acetamide] — within 1.5-fold, 6.5 nM
- C[C@H](NC(=O)C(C)(C)CO)[C@H](Oc1ccc2c(cnn2-c2ccc(F)cc2)c1)c1ccc(F)c(F)c1 [Example 251, N-[(1R,2S)-1-(3,4-difluorophenyl)-1-[1-(4-fluorophenyl)indazol-5-yl]oxy-propan-2-yl]-3-hydroxy-2,2-dimethyl-propanamide] — the same, 5.3 nM
- COc1ccc(F)cc1[C@@H](Oc1ccc2c(cnn2-c2ccc(F)cc2)c1)[C@H](C)NC(=O)C1(C)CC1 (stereo in doubt) [Example 268, N-[(1R,2S)-1-(5-fluoro-2-methoxy-phenyl)-1-[1-(4-fluorophenyl)indazol-5-yl]oxy-propan-2-yl]-1-methyl-cyclopropane-1-carboxamide] — 1.7-fold lower, 3.1 nM
- COc1cccc([C@@H](Oc2ccc3c(cnn3-c3ccc(F)cc3)c2)[C@H](C)NC(=O)CNC(N)=O)c1 [Example 270, 2-(carbamoylamino)-N-[(1R,2S)-1-[1-(4-fluorophenyl)indazol-5-yl]oxy-1-(3-methoxyphenyl)propan-2-yl]acetamide] — 1.5-fold higher, 8.1 nM
- Cc1ccc([C@@H](Oc2ccc3c(cnn3-c3ccc(F)cc3)c2)[C@H](C)NC(=O)C(F)(F)F)cc1C [Example 149, N-[(1R,2S)-1-(3,4-dimethylphenyl)-1-[1-(4-fluorophenyl)indazol-5-yl]oxy-propan-2-yl]-2,2,2-trifluoro-acetamide] — within 1.5-fold, 5.5 nM
- C[C@H](NC(=O)C1(C)CC1)[C@H](Oc1ccc2c(cnn2-c2ccc(F)cc2)c1)c1cc(F)cc(Cl)c1 [Example 223, N-[(1R,2S)-1-(3-chloro-5-fluoro-phenyl)-1-[1-(4-fluorophenyl)indazol-5-yl]oxy-propan-2-yl]-1-methyl-cyclopropane-1-carboxamide] — within 1.5-fold, 3.9 nM
- C[C@H](NC(=O)C(C)(C)C)[C@H](Oc1ccc2c(cnn2-c2ccc(F)cc2)c1)c1ccc(Cl)cc1 [Example 183, N-[(1R,2S)-1-(4-chlorophenyl)-1-[1-(4-fluorophenyl)indazol-5-yl]oxy-propan-2-yl]-2,2-dimethyl-propanamide] — within 1.5-fold, 4.6 nM
- C[C@H](NC(=O)C1CCC1)[C@H](Oc1ccc2c(cnn2-c2ccc(F)cc2)c1)c1ccccc1 [Example 43, N-[(1R,2S)-1-[1-(4-fluorophenyl)indazol-5-yl]oxy-1-phenyl-propan-2-yl]cyclobutanecarboxamide] — 2.4-fold lower, 2.2 nM
- COc1cccc([C@@H](Oc2ccc3c(cnn3-c3ccc(F)cc3)c2)[C@H](C)NC(=O)c2cccn2C)c1 [Example 133, N-[(1R,2S)-1-[1-(4-fluorophenyl)indazol-5-yl]oxy-1-(3-methoxyphenyl)propan-2-yl]-1-methyl-pyrrole-2-carboxamide] — 1.6-fold lower, 3.3 nM
- COc1cccc([C@@H](Oc2cc3cnn(-c4ccc(F)cc4)c3cc2C)[C@H](C)NC(=O)CO)c1 [Example 67, N-[(1R,2S)-1-[1-(4-Fluorophenyl)-6-methyl-indazol-5-yl]oxy-1-(3-methoxyphenyl)propan-2-yl]-2-hydroxy-acetamide] — within 1.5-fold, 4.1 nM
- C[C@H](NC(=O)C(F)(F)F)[C@H](Oc1ccc2c(cnn2-c2ccc(F)cc2)c1)c1cccc(Cl)c1 [Example 155, N-[(1R,2S)-1-(3-chlorophenyl)-1-[1-(4-fluorophenyl)indazol-5-yl]oxy-propan-2-yl]-2,2,2-trifluoro-acetamide] — within 1.5-fold, 5 nM
- C[C@H](NC(=O)C(C)(C)F)[C@H](Oc1ccc2c(cnn2-c2ccc(F)cc2)c1)c1cccc(F)c1 [Example 243, 2-fluoro-N-[(1R,2S)-1-(3-fluorophenyl)-1-[1-(4-fluorophenyl)indazol-5-yl]oxy-propan-2-yl]-2-methyl-propanamide] — within 1.5-fold, 5.5 nM
- CCC[C@H](NC(=O)CO)[C@H](Oc1ccc2c(cnn2-c2ccc(F)cc2)c1)c1cccc(OC)c1 [Example 93, N-((1R,2S)-1-(1-(4-fluorophenyl)-1H-indazol-5-yloxy)-1-(3-methoxyphenyl)pentan-2-yl)-2-hydroxyacetamide] — within 1.5-fold, 3.7 nM
- COc1cccc([C@@H](Oc2ccc3c(cnn3-c3ccc(F)cc3)c2)[C@H](C)NC(=O)c2cc(C)c(C)o2)c1 [Example 286, N-[(1R,2S)-1-[1-(4-fluorophenyl)indazol-5-yl]oxy-1-(3-methoxlphenyl)propan-2-yl]-4,5-dimethyl-furan-2-carboxamide] — within 1.5-fold, 4.7 nM
- Cc1cccc([C@@H](Oc2ccc3c(cnn3-c3ccc(F)cc3)c2)[C@H](C)NC(=O)C2(C)CC2)c1 [Example 225, N-[(1R,2S)-1-[1-(4-fluorophenyl)indazol-5-yl]oxy-1-(3-methylphenyl)propan-2-yl]-1-methyl-cyclopropane-1-carboxamide] — within 1.5-fold, 4.8 nM
- COc1cccc([C@@H](Oc2ccc3c(cnn3-c3ccc(F)cc3)c2)[C@H](C)NC(=O)CF)c1 [Example 53, 2-Fluoro-N-[(1R,2S)-1-[1-(4-fluorophenyl)indazol-5-yl]oxy-1-(3-methoxyphenyl)propan-2-yl]acetamide] — 1.5-fold lower, 3.5 nM
- CC[C@H](NC(=O)CO)[C@H](Oc1ccc2c(cnn2-c2ccc(F)cc2)c1)c1ccccc1 [Example 95, N-((1R,2S)-1-(1-(4-fluorophenyl)-1H-indazol-5-yloxy)-1-phenylbutan-2-yl)-2-hydroxyacetamide] — 1.6-fold lower, 3.4 nM

From patent publication US8143290B2, “Chemical compounds 572” (AstraZeneca AB, priority 2006, dated 2012)
